From ChEMBL document CHEMBL1135890, “Structure-activity relationships of 2'-fluoro-2',3'-unsaturated D-nucleosides as anti-HIV-1 agents” (J Med Chem, 2002)

What was measured:
[1] = system: Vero; experiment: (§1) Cytotoxicity against Vero cells was determined.; format: cell-based; settings: Chlorocebus sabaeus
[2] = system: CCRF-CEM; experiment: Cytotoxicity against CEM cells; format: cell-based, Homo sapiens
[3] = system: Human immunodeficiency virus 1; experiment: Anti-HIV activity was determined; format: functional, organism-based
[4] = (§2) Toxicity against human peripheral blood mononuclear (PBM) cells
[5] = Anti-HIV activity against human peripheral blood mononuclear (PBM) cell lines infected with M184V Pitt (FTC resistant isolate); format: functional
[6] = Anti-HIV activity against human peripheral blood mononuclear (PBM) cell lines infected with XxBRU Pitt (FTC sensitive isolate); format: functional
[7] = system: Vero; experiment: as §1; format: functional, cell-based; settings: Chlorocebus sabaeus
[8] = Half life at pH 2.0; format: ADME; settings: buffer
[9] = as §2; format: functional
[10] = system: CCRF-CEM; experiment: Cytotoxicity against CEM cells was determined.; format: functional, cell-based; settings: Homo sapiens
[11] = Half life was determined.; format: ADME
[12] = human, peripheral blood mononuclear (PBM) cells, IC50

Structure (SMILES) | EC50 ([3]; Human immunodeficiency virus 1) | IC50 [1] | IC50 ([2]; Homo sapiens, CCRF-CEM) | IC50 [4, 12] | EC50 [3] | further results
OC[C@@H]1C=C(F)[C@H](n2cnc3c(O)ncnc32)O1 | 1 µM | 87.7 µM | > 100 µM | 92.7 µM |  | EC50 [5]: 2.5 µM; EC50 [6]: 2.8 µM
Nc1nc(Cl)c2ncn([C@@H]3O[C@H](CO)C=C3F)c2n1 (stereo in doubt; 11) |  |  |  |  | 4.3 µM | IC50 ([2]; ccrf-cem): > 100 µM; IC50 [4]: 98.8 µM
Nc1nc(Cl)c2ncn([C@@H]3O[C@H](CO)C=C3F)c2n1 (stereo in doubt; 13) |  | > 100 µM |  | 77.4 µM | > 75 µM | IC50 ([2]; ccrf-cem): 30.2 µM
Nc1ncnc2c1ncn2[C@@H]1O[C@H](CO)C=C1F (stereo in doubt; 14) |  |  |  |  | 0.44 µM | IC50 [7]: > 100 µM; half-life [8]: 72 h; EC50 [5]: 0.8 µM; IC50 [9]: 68.3 µM; IC50 [10]: 57.6 µM; half-life [11]: 41.6 min; EC50 [6]: 0.46 µM
Nc1ncnc2c1ncn2[C@@H]1O[C@H](CO)C=C1F (stereo in doubt; 15) |  | > 100 µM | > 100 µM | > 100 µM | > 100 µM | 
Nc1nc(O)c2ncn([C@@H]3O[C@H](CO)C=C3F)c2n1 (stereo in doubt; 18) |  |  |  |  |  | EC50 [5]: 11.2 µM
Nc1nc(O)c2ncn([C@@H]3O[C@H](CO)C=C3F)c2n1 (stereo in doubt; 19) |  | > 100 µM | > 100 µM | > 100 µM | 18.3 µM | 
Nc1ccn([C@@H]2O[C@H](CO)C=C2F)c(=O)n1 (stereo in doubt; 28) |  |  |  |  | 2.6 µM | IC50 ([2]; ccrf-cem): 35.3 µM; IC50 [4]: 7.3 µM
Nc1ccn([C@@H]2O[C@H](CO)C=C2F)c(=O)n1 (stereo in doubt; 29) |  | > 100 µM |  |  | > 100 µM | IC50 ([2]; ccrf-cem): > 100 µM; IC50 [4]: > 100 µM
Nc1nc(=O)n([C@@H]2O[C@H](CO)C=C2F)cc1F (stereo in doubt; 30) |  | > 100 µM | > 100 µM | > 100 µM | 0.82 µM | EC50 [5]: 9.61 µM; EC50 [6]: 3.1 µM
Nc1nc(=O)n([C@@H]2O[C@H](CO)C=C2F)cc1F (stereo in doubt; 31) |  |  |  |  | > 100 µM | 
Nc1ncnc2c1ncn2[C@@H]1O[C@H](CO)[C@@H](O)[C@H]1O [ADENOSINE] |  |  |  |  |  | half-life [11]: 0.417 min
Cc1cn([C@H]2C[C@H](N=[N+]=[N-])[C@@H](CO)O2)c(=O)[nH]c1=O [ZIDOVUDINE] |  |  |  | > 100 µM |  | EC50 [5]: 0.004 µM; EC50 [6]: 0.005 µM

More lines, main results first:

EC50 ([3]; Human immunodeficiency virus 1) | Structure (SMILES) | IC50 [1] | IC50 ([2]; Homo sapiens, CCRF-CEM) | IC50 [4, 12] | EC50 [3] | further results
> 100 µM | Nc1nc(F)nc2c1ncn2[C@@H]1O[C@H](CO)C=C1F | > 100 µM | > 100 µM | > 100 µM |  | 
3 µM | Nc1nc(N)c2ncn([C@@H]3O[C@H](CO)C=C3F)c2n1 | > 100 µM | > 100 µM | > 100 µM |  | 
3.97 µM | Nc1nc(F)nc2c1ncn2[C@H]1O[C@H](CO)C=C1F | 16.1 µM | 28.3 µM | 41.2 µM |  | 
> 100 µM | Nc1nc(N)c2ncn([C@@H]3O[C@@H](CO)C=C3F)c2n1 | > 100 µM | > 100 µM | > 100 µM |  | 
> 100 µM | OC[C@@H]1C=C(F)[C@@H](n2cnc3c(O)ncnc32)O1 | > 100 µM | > 100 µM | > 100 µM |  | 
> 100 µM | Cc1cn([C@@H]2O[C@H](CO)C=C2F)c(=O)nc1N | > 100 µM | > 100 µM | > 100 µM |  | 
